Assay results reported in patent publication US20130183239A1, “ISOTOPIC CARBON CHOLINE ANALOGS” (IMPERIAL COLLEGE, priority 2010, published 2013).

Key:
[1] = test system: human melanoma SKMEL-28 xenografts; settings: mouse, in vivo
Experimental: Dynamic [^18F]FCH and [^18F]D4-FCH imaging scans were carried out on a dedicated small animal PET scanner, quad-HIDAC (Oxford Positron Systems). The features of this instrument have been described previously (Barthel, H., et al., Cancer Res 2003; 63(13):3791-8). For scanning the tail veins, vehicle- or drug-treated mice were cannulated after induction of anesthesia (isofluorane/O2/N2O). The animals were placed within a thermostatically controlled jig (calibrated to provide a rectal temperature of ˜37° C.) and positioned prone in the scanner. [^18F]FCH or [^18F]D4-FCH (2.96-3.7 MBq) was injected via the tail vein cannula and scanning commenced. Dynamic scans were acquired in list mode format over a 60 min period as reported previously (Leyton, J., et al., Cancer Research 2006; 66(15):7621-9). The acquired data were sorted into 0.5 mm sinogram bins and 19 time frames (0.5×0.5×0.5 mm voxels; 4×15, 4×60, and 11×300 s) for image reconstruction, which was done by filtered back-projection using a two-dimensional Hamming filter (cutoff 0.6). The image data sets were visualized using the Analyze software (version 6.0; Biomedical Imaging Resource, Mayo Clinic). Cumulative images of 30 to 60 min dynamic data were used for visualization of radiotracer uptake and to draw regions of interest. Regions of interest were defined manually on five adjacent tumor regions (each 0.5 mm thickness). Dynamic data from these slices were averaged for each tissue (liver, kidney, muscle, urine, and tumor) and at each of the 19 time points to obtain time versus radioactivity curves. Corresponding whole body time versus radioactivity curves representing injected radioactivity were obtained by adding together radioactivity in all 200×160×160 reconstructed voxels. Tumor radioactivity was normalized to whole-body radioactivity and expressed as percent injected dose per voxel (% ID/vox). The normalized uptake of radiotracer at 60 min (% ID/vox60) was used for subsequent comparisons. The average of the normalized maximum voxel intensity across five slices of tumor % IDvox60max was also use for comparison to account for tumor heterogeneity and existence of necrotic regions in tumor. The area under the curve was calculated as the integral of % ID/vox from 0 to 60 min.

[2] = test system: prostate adenocarcinoma PC3-M tumors; set-up: AUC: unit not given beside the values
Experimental: Dynamic ^11C-choline, ^11C-D4-choline and ^18F-D4-choline imaging scans were carried out on a dedicated small animal PET scanner (Siemens Inveon PET module, Siemens Medical Solutions USA, Inc., Malvem, Pa., USA) following a bolus i.v. injection in tumor-bearing mice of either ˜3.7 MBq for ^18F studies, or ˜18.5 MBq for ^11C. Dynamic scans were acquired in list mode format over 60 min. The acquired data were then sorted into 0.5 mm sinogram bins and 19 time frames for image reconstruction (4×15 s, 4×60 s, and 11×300 s), which was done by filtered back projection. For input function analysis, data were sorted into 25 time frames for image reconstruction (8×5 s, 1×20 s, 4×40 s, 1×80 s, and 11×300 s). The Siemens Inveon Research Workplace software was used for visualization of radiotracer uptake in the tumor; 30 to 60 min cumulative images of the dynamic data were employed to define 3-dimensional (3D) regions of interest (ROIs). Arterial input function was estimated as follows: a single voxel 3D ROI was manually drawn in the center of the heart cavity using 2 to 5 min cumulative images. Care was taken to minimize ROI overlap with the myocardium. The count densities were averaged for all ROIs at each time point to obtain a time versus radioactivity curve (TAC). Tumor TACs were normalized to injected dose, measured by a VDC-304 dose calibrator (Veenstra Instruments, Joure, The Netherlands), and expressed as percentage injected dose per mL tissue. The area under the TAC, calculated as the integral of % ID/mL from 0-60 min, and the normalized uptake of radiotracer at 60 min (% ID/mL60) were also used for comparisons.
For PET imaging, tumors were grown to 100 mm^3 prior to imaging.
A 2-tissue irreversible compartmental model was employed to fit the TACs, as has been previously established for ^11C-choline (Kenny L M, Contractor K B, Hinz R, et al. Reproducibility of [11C]choline-positron emission tomography and effect of trastuzumab. Clin Cancer Res. Aug. 15 2010; 16(16):4236-4245; and Sutinen E, Nurmi M, Roivainen A, et al. Kinetics of [(11)C]choline uptake in prostate cancer: a PET study. Eur J Nucl Med Mol. Imaging. March 2004; 31(3):317-324). An estimate of the whole blood TAC (wbTAC(t)) was derived from the PET image itself, as described above. […] Therefore it was fitted with a sum of 3 exponentials from the peak on and the fitted function was used as input function in the kinetic modeling (after metabolite correction, see below). […] The pf values were fitted to a sum of two exponentials with the constraint pf(t=0)=1 to obtain the function pf(t). The parent whole blood TAC wbTACPAR(t) was then computed by multiplying wbTAC(t) and pf(t) and used as input function to estimate the parameters K1 (mL/cm^3/min), k2 (1/min), k3 (1/min) and Vb (unitless). The steady state net irreversible uptake rate constant Ki (mL/cm^3/min) was calculated from the estimated microparameters as K1k3/(k2+k3).

[3] = PC3-M tumors, 2-tissue irreversible model

[2H]C([2H])(O)C([2H])([2H])[N+](C)(C)C[18F] [[^18F]D4-FCH, [^18F]fluoromethyl-[1,2-^2H4]-choline]
% IDvox60max (average of maximum pixel % ID/vox60 across 5 slices) [1]: significantly higher | tumor area under the time versus radioactivity curve (AUC) [1]: higher | K1′ [2, 3]: 0.090 ± 0.007 | Ki [2, 3]: 0.009 ± 0.002 mL/cm^3/min | k3 [2, 3]: 0.040 ± 0.006 min⁻¹ | AUC ([2]; mouse, in vivo): 121.3 ± 3.1 | NUV60 ([2]; mouse, in vivo): 1.97 ± 0.07 % ID/mL | increase in % ID/mLmax, smaller versus larger tumors ([2]; mouse, in vivo): 1.4 fold | increase in normalized uptake at 60 min, smaller versus larger tumors ([2]; mouse, in vivo): 2.4 fold | time to maximal tumor-specific radioactivity ([2]; mouse, in vivo): ≤ 5 min
